Test [1] deals with tumor. The following applies: nude mouse model, Teicher et al. 2002; cited from earlier work.
The subject of test [2] is GBM-derived neurospheres. As to the kind of experiment: Neurosphere growth with growth factors. Format: cell-based, human. To be noted: for neurosphere growth: maximal concentration of 20 ng/ml. The text has this: Previously described GBM cell lines were used for the instant in vitro studies (Hartman et al., Internat. J. One. 15: 975-982 (1999)). To create neurosphere cultures, two cell lines (G63 and G69) were sorted using a CD133 cell isolation kit (Miltenyi Biotech) according to manufacturer's instructions, and maintained in culture as described for primary GBM specimens (Singh et al., Nature 432: 396-401 (2004)). All neurosphere cultures were maintained in Neurobasal medium (Invitrogen) with N2 supplement (Invitrogen) and NSF1 (Cambrex). For growth studies, both EGF and IGF2 were added at a concentration of 20 ng/ml. Neurospheres of primary GBM were obtained as unsorted dissociate of primary tumor (from Drs. M. Westphal and K. Lamszuz, Univ. Hamburg), expanded and maintained under the same conditions described for cel line-derived neurospheres. Neurosphere assays were performed in triplicate.
When IGF2-dependent neurospheres were disassociated and subjected to a proliferation assay using increasing concentrations of EGF or IGF2, both growth factors induced rapid growth. The growth rate based on growth factor dosage produced an identical growth curve for each growth factor (FIG. 3B).

As to `Cl.Cn1cc(C2=C(c3cn(C4CCN(Cc5ccccn5)CC4)c4ccccc34)C(=O)NC2=O)c2ccccc21` [317615-HCL], the anti-tumor effect entry in test [1] is given as “anti-tumor effect”. Take “EGF: growth factor added to neurosphere cultures (NSDSECPLSHDGYCLHDGVCMYIEALDKYACNCVVGYIGERCQYRDLKWWELR; Epidermal growth factor; UniProt P01133 971-1023, looked up)”: the neurosphere growth result in test [2] is “proliferated rapidly”.

As to “IGF2: Recombinant IGF2 (R&D Systems, 292-G2), growth factor”, in test [2], the neurosphere growth entry is listed as “proliferated rapidly”. For the same compound, the “proliferative response of neurospheres compared with EGF” value in test [2] (neurosphere system) is “indistinguishable from the response to EGF”.

Source of the values: patent US20090269351A1, “METHOD OF DIAGNOSING AND TREATING GLIOMA” (Genentech, Inc., priority 2006, published 2009).
